Test results: patent US20250222044A1, “LIMOSILACTOBACILLUS REUTERI GOLDGUT-LR99 AND APPLICATION THEREOF” (priority 2024, published 2025)

What was measured:
[1] = tested on: Limosilactobacillus reuteri GOLDGUT-LR99; assay: Antibiotic sensitivity, K-B method (Kirby-Bauer method); format: cell-based; set-up: key to Antibiotic susceptibility test result: R represents resistance; S represents sensitivity; conditions: susceptibility of the strain to the antibiotic
Description: Antibiotic sensitivity of Limosilactobacillus reuteri GOLDGUT-LR99 was determined using the K-B method (Kirby-Bauer method).

[2] = tested on: Limosilactobacillus reuteri GOLDGUT-LR99; assay: Carbon source utilization and oxidation experiment (AN Biolog micro-pore plate); format: cell-based; conditions: substrate utilization by the strain, 37° C. anaerobic culture for 24 hours
Description: The AN Biolog micro-pore plate was used for measuring the utilization and oxidation conditions of different carbon sources of Limosilactobacillus reuteri GOLDGUT-LR99, the AN microplate used nutrients and biochemical reagents, and the method included the following steps: 1 mL of Limosilactobacillus reuteri GOLDGUT-LR99 bacterial liquid of the strain to be detected at the end of logarithmic growth was pipetted and centrifuged, then the supernatant was removed, the cells was washed three times with the seed liquid and suspended with 1 mL of the seed liquid, 50 μL of the suspension was taken and diluted in 10 mL of the seed liquid, the diluent was subpacked in a Biolog plate (100 μL/pore) after mixing uniformly, and the Biolog plate with the diluent was placed in 37° C. for anaerobic culture for 24 hours. After the culture was finished, OD590 and OD750 were detected by using microplate reader, the numerical values were recorded, and the utilization conditions of carbohydrate, organic acid and other substances of the Limosilactobacillus reuteri GOLDGUT-LR99 were calculated, wherein the calculation method was as follows: Y=OD590−OD750;

Molecule: CC1(C)S[C@@H]2[C@H](NC(=O)[C@H](N)c3ccccc3)C(=O)N2[C@H]1C(=O)O [Ampicillin]
- Antibiotic susceptibility test result [1]: S
- antibiotic sensitivity (in words) [1]: sensitive

Molecule: CC1(C)S[C@@H]2[C@H](NC(=O)Cc3ccccc3)C(=O)N2[C@H]1C(=O)O [Benzylpenicillin]
- Antibiotic susceptibility test result [1]: S

Molecule: CC1(C)S[C@@H]2[C@H](NC(=O)C(C(=O)O)c3ccccc3)C(=O)N2[C@H]1C(=O)O (stereo partly shown) [Carbenicillin]
- Antibiotic susceptibility test result [1]: S

Molecule: Cc1nnc(SCC2=C(C(=O)O)N3C(=O)[C@@H](NC(=O)Cn4cnnn4)[C@H]3SC2)s1 [Cefazolin]
- Antibiotic susceptibility test result [1]: S

Molecule: CCN1CCN(C(=O)N[C@@H](C(=O)N[C@@H]2C(=O)N3C(C(=O)O)=C(CSc4nnnn4C)CS[C@H]23)c2ccc(O)cc2)C(=O)C1=O [Cefperazone]
- Antibiotic susceptibility test result [1]: S

Molecule: CC1=C(C(=O)O)N2C(=O)[C@@H](NC(=O)[C@H](N)C3=CCC=CC3)[C@H]2SC1 [Cefradine]
- Antibiotic susceptibility test result [1]: S

Molecule: CC(C)(O/N=C(\C(=O)N[C@@H]1C(=O)N2C(C(=O)[O-])=C(C[n+]3ccccc3)CS[C@H]12)c1csc(N)n1)C(=O)O [Ceftazidime]
- Antibiotic susceptibility test result [1]: S

Molecule: CO/N=C(\C(=O)N[C@@H]1C(=O)N2C(C(=O)O)=C(CSc3nc(=O)c(=O)[nH]n3C)CS[C@H]12)c1csc(N)n1 [Ceftriaxone]
- Antibiotic susceptibility test result [1]: S

Molecule: CO/N=C(\C(=O)N[C@@H]1C(=O)N2C(C(=O)O)=C(COC(N)=O)CS[C@H]12)c1ccco1 [Cefuroxime]
- Antibiotic susceptibility test result [1]: S

Molecule: CC1=C(C(=O)O)N2C(=O)[C@@H](NC(=O)[C@H](N)c3ccccc3)[C@H]2SC1 [Cephalexin]
- Antibiotic susceptibility test result [1]: S

Molecule: O=C(N[C@H](CO)[C@H](O)c1ccc([N+](=O)[O-])cc1)C(Cl)Cl [Chloramphenicol]
- Antibiotic susceptibility test result [1]: S

Molecule: O=C(O)c1cn(C2CC2)c2cc(N3CCNCC3)c(F)cc2c1=O [Ciprofloxacin]
- Antibiotic susceptibility test result [1]: R

Molecule: CCC[C@@H]1C[C@@H](C(=O)N[C@@H]([C@H]2O[C@H](SC)[C@H](O)[C@@H](O)[C@H]2O)[C@H](C)Cl)N(C)C1 [Clindamycin]
- Antibiotic susceptibility test result [1]: R

Molecule: C[C@H]1c2cccc(O)c2C(=O)C2=C(O)[C@]3(O)C(=O)C(C(N)=O)=C(O)[C@@H](N(C)C)[C@@H]3[C@@H](O)[C@@H]21 [Doxycycline]
- Antibiotic susceptibility test result [1]: S

Molecule: CC[C@H]1OC(=O)[C@H](C)[C@@H](O[C@H]2C[C@@](C)(OC)[C@@H](O)[C@H](C)O2)[C@H](C)[C@@H](O[C@@H]2O[C@H](C)C[C@H](N(C)C)[C@H]2O)[C@](C)(O)C[C@@H](C)C(=O)[C@H](C)[C@@H](O)[C@]1(C)O [Erythromycin]
- Antibiotic susceptibility test result [1]: R

Molecule: O=C1OCCN1/N=C/c1ccc([N+](=O)[O-])o1 [Furazolidone]
- Antibiotic susceptibility test result [1]: S

Molecule: NC[C@H]1O[C@H](O[C@H]2[C@H](O)[C@@H](O[C@H]3O[C@H](CO)[C@@H](O)[C@H](N)[C@H]3O)[C@H](N)C[C@@H]2N)[C@H](O)[C@@H](O)[C@@H]1O [Kanamycin]
- Antibiotic susceptibility test result [1]: S

Molecule: CCC(=O)O[C@@H]1CC(=O)O[C@H](C)C/C=C/C=C/[C@H](O)[C@H](C)C[C@H](CC=O)[C@H](O[C@@H]2O[C@H](C)[C@@H](O[C@H]3C[C@@](C)(O)[C@@H](OC(=O)CC)[C@H](C)O3)[C@H](N(C)C)[C@H]2O)[C@H]1OC [Midecamycin]
- Antibiotic susceptibility test result [1]: R

Molecule: CN(C)c1ccc(O)c2c1C[C@H]1C[C@H]3[C@H](N(C)C)C(O)=C(C(N)=O)C(=O)[C@@]3(O)C(O)=C1C2=O [Minocycline]
- Antibiotic susceptibility test result [1]: S

Molecule: CCn1cc(C(=O)O)c(=O)c2cc(F)c(N3CCNCC3)cc21 [Norfloxacin]
- Antibiotic susceptibility test result [1]: R

Molecule: CC1COc2c(N3CCN(C)CC3)c(F)cc3c(=O)c(C(=O)O)cn1c23 (stereo not shown) [Ofloxacin]
- Antibiotic susceptibility test result [1]: R

Molecule: CCN1CCN(C(=O)N[C@@H](C(=O)N[C@@H]2C(=O)N3[C@@H]2SC(C)(C)[C@@H]3C(=O)O)c2ccccc2)C(=O)C1=O [Piperacillin]
- Antibiotic susceptibility test result [1]: S

Molecule: Cc1cc(NS(=O)(=O)c2ccc(N)cc2)no1 [Sulfamethoxazole, Compound Sulfamethoxazole]
- Antibiotic susceptibility test result [1]: R

Molecule: CN(C)[C@@H]1C(O)=C(C(N)=O)C(=O)[C@@]2(O)C(O)=C3C(=O)c4c(O)cccc4[C@@](C)(O)[C@H]3C[C@@H]12 [Tetracycline]
- Antibiotic susceptibility test result [1]: S

Molecule: CN[C@H](CC(C)C)C(=O)N[C@H]1C(=O)N[C@@H](CC(N)=O)C(=O)N[C@H]2C(=O)N[C@H]3C(=O)N[C@H](C(=O)N[C@H](C(=O)O)c4cc(O)cc(O)c4-c4cc3ccc4O)[C@H](O)c3ccc(c(Cl)c3)Oc3cc2cc(c3O[C@@H]2O[C@H](CO)[C@@H](O)[C@H](O)[C@H]2O[C@H]2C[C@](C)(N)[C@H](O)[C@H](C)O2)Oc2ccc(cc2Cl)[C@H]1O [Vancomycin]
- Antibiotic susceptibility test result [1]: R

Molecule: Gentamicin
- Antibiotic susceptibility test result [1]: S

Molecule: Neomycin
- Antibiotic susceptibility test result [1]: S

Molecule: Penicillin
- Antibiotic susceptibility test result [1]: S

Molecule: Polymyxin
- Antibiotic susceptibility test result [1]: R

Molecule: α-Succinic acid
- Utilization (Y=OD590−OD750) [2]: − (when Y < 0.05, it is shown that the strain was not able to utilize this substance, marked as −)
